US20160045463A1, “USE OF METALLOPROTEASE INHIBITORS IN THE TREATMENT OF POLYCYSTIC LIVER DISEASES” (UNIVERSIDAD DE SALAMANCA, priority 2012, published 2016)

Assays:
Assay type in all cases: cell-based
[1] = test system: normal human cholangiocytes; assay: Metalloproteolytic activity of culture supernatants, ES001 fluorogenic peptide cleavage; conditions: for metalloproteolytic activity in presence of stimulus: normal cholangiocytes vs basal, Table 3 final concentration: IL-6, IL-8 50 ng/ml, 17β-estradiol 1 nM/ml, VEGF, EGF, ENA-78, GRO-α 10 ng/ml, HGF 20 ng/ml, FIG. 9
Description: (§1) Metalloproteolytic or metalloprotease activity was measured in supernatants of cultures of normal human cholangiocytes and polycystic human cholangiocytes by an assay based on the cleavage of the ES001 fluorogenic synthetic peptide (R&D Systems Minneapolis, Minn., USA) that emits fluorescence proportional to metalloproteolytic activity. The substrate Mca-Pro-Leu-Gly-Leu-Dpa-Ala-Arg-NH2 [Mca: (7-Methoxycoumarin-4-yl)acetyl, Dpa: N-3-(2,4-Dinitrophenyl)-L-2,3-diaminopropionyl] (Knight C G, et al. FEBS Letters 1992; 296:263) is lysed between glycine and leucine by the action of the MMPs, especially MMP-1 (collagenase 1), MMP-2 (gelatinase A), MMP-7 (matrilysin), MMP-8 (collagenase 2), MMP-9 (gelatinase B), MMP-12 (macrophage elastase), MMP-13 (collagenase 3), MMP-14 (MT1-MMP), MMP-15 (MT2-MMP) and MMP-16 (MT3-MMP).
(§2) The basal metalloproteolytic activity of normal human cholangiocyte and polycystic human cholangiocytes cultures was determined by trypsinising the contents of 250 ml flasks and counting the number of cells in an inverted optical microscope using a Neubauer camera and a ½ dilution of the cell solution with trypan blue (Sigma). Next, 300,000 cells were seeded in each well of a 6-well plate and incubated with enriched DMEM/F-12 medium for 24 hours. After this time, the cells were washed with PBS and the culture medium changed for 2 ml of quiescent medium (DMEM/F-12, 1% FBS and 1% P/S) and incubated for 6 hours at 37° C./5% CO2. The supernatant was collected from each well and centrifuged at 4° C. for 10 minutes at 1,500 rpm to remove the dead cells present in the supernatant. The supernatant was concentrated 50 times using a 15 kDa (Millipore) Amicon Ultra concentrator. Next the concentrated supernatant was incubated for 2 hours at 37° C. with the ES001 fluorogenic peptide at a final concentration of 10 μM. Also, GM6001 (a global MMP inhibitor) and aprotinin (a global inhibitor of serine proteases) (both from Sigma-Aldrich) were used as controls of the specificity of the analysis of MMP activity in the assay. Recombinant MMP-10 (kindly provided by Dr. José Antonio Rodriguez Garcia, Laboratorio de Ateroesclerosis e Inflamación del CIMA, Universidad de Navarra) was used as a positive control and DMEM/F-12 medium without serum was used as the negative control. The fluorescence determination was kinetically measured in a Spectra MAX GeminiXS (Molecular Devices Sunnyvale, Calif., USA) spectrophotometer at excitation-emission wavelengths of 320-405 nm. The fluorescence intensity emitted by the culture medium was extracted from the metalloproteolytic activity values. The metalloproteolytic activity was calculated from the tangent to the curve of the fluorescence values using at least six different points over time for each type of cell and condition.
(§3) To analyse the effect of various stimuli on the metalloproteolytic activity of normal and polycystic human cholangiocytes cultures, a protocol similar to that described before in Example 2 was followed, but in this case the incubation of the cells was with quiescent medium (i.e. DMEM/F12, […]) in the presence of the corresponding stimulus (Table 3). Next, the same procedure as described for the analysis of basal metalloproteolytic activity was followed as described in Example 2.
(§4) Taking into account that: i) basal activity of polycystic human cholangiocytes in culture is greater than that of normal human cholangiocytes and ii) that IL-6 and IL-8 increased the metalloproteolytic activity of normal and polycystic human cholangiocytes, the role of these two cytokines on metalloproteolytic hyperactivity of polycystic human cholangiocytes using antibodies against the receptors of IL-6 (IL6R) and/or IL-8 (CXCR1) was investigated. […]

[2] = test system: polycystic human cholangiocytes; assay: as above; conditions: for metalloproteolytic activity in presence of stimulus: polycystic cholangiocytes vs basal, Table 3 final concentration: IL-6, IL-8 50 ng/ml, 17β-estradiol 1 nM/ml, VEGF, EGF, ENA-78, GRO-α 10 ng/ml, HGF 20 ng/ml, FIG. 9
Description: as §1, §2, §3, §4

[3] = test system: normal human cholangiocytes; assay: MMP mRNA expression by quantitative PCR in the presence of IL-6, IL-8 or 17β-estradiol; conditions: for expression of MMP-2 (mRNA): FIG. 10; for expression of MMP-3 (mRNA): FIG. 11; for expression of MMP-7 (mRNA): FIG. 12; for expression of MMP-10 (mRNA): FIG. 13; for expression of MMP-11 (mRNA): FIG. 14; for expression of MMP-13 (mRNA): FIG. 15; for expression of MMP-15 (mRNA): FIG. 16; for expression of MMP-17 (mRNA): FIG. 17; for expression of MMP-27 (mRNA): FIG. 18
Description: (§5) To determine if the metalloproteolytic hyperactivity of polycystic human cholangiocytes is associated with changes in the pattern of expression of MMPs and their natural inhibitors, TIMPs, at the level of mRNA, this was analysed by quantitative PCR (i.e. qPCR) using the cDNA previously obtained as explained in Example 1, the gene expression of a total of 22 genes, including those containing the members of the metalloprotease family: MMP-1, MMP-2, MMP-3, MMP-7, MMP-8, MMP-9, MMP-10, MMP-11, MMP-13, MMP-14, MMP-15, MMP-16, MMP-17, MMP-18, MMP-24, MMP-25, MMP-26, MMP-27 and their natural inhibitors: TIMP-1, TIMP-2, TIMP-3, TIMP-4. Briefly, 4 μl of the cDNA were taken and 1.8 μl of a 10 μM solution of each primer (final concentration 0.9 μM) and 10 μl of FastSYBR® Green (Applied Biosystems) were added, adding sterile water (Braun) to reach a final volume of 20 μl. The amplification reactions were performed in a StepOne Plus (Applied Biosystems) thermo cycler following the standard protocol conditions for FastSYBR Green®.
(§6) The relative estimate of the mRNA levels of the genes of Table 2 were calculated from the PCR progression curve (fluorescence vs. cycle), where the cycle threshold or Ct was determined from when the fluorescence signal begins to increase exponentially. Thus to calculate the difference of relative expression of the normal and polycystic human cholangiocytes, the data obtained were analysed following the modified method of Livak and Schmittgen (Livak K J, et al. Methods 2001; 25:402), according to the following equation:
(§7) Relative values=1.8^(polycystic or normal cholangiocyte GAPDH−polycystic or normal cholangiocyte GEN)
(§8) Where the superscripts “GAPDH polycystic or normal cholangiocytes” and “Gene polycystic or normal cholangiocytes” correspond to the Ct for GAPDH and for each studied gene. The value of 1.8 (in place of 2) was used because it is assumed that the real efficiency of each amplification cycle is around 80% instead of 100%.
as §3
(§9) Taking into account the increase in metalloproteolytic activity induced by interleukins 6 and 8 and also the oestrogen 17β-estradiol in human cholangiocytes in culture, this was further investigated to determine if the increase in activity was correlated with an increase in gene expression at the level of mRNA of the various MMPs.

[4] = test system: polycystic human cholangiocytes; assay: as above; conditions: for expression of MMP-2 (mRNA): FIG. 10; for expression of MMP-3 (mRNA): FIG. 11; for expression of MMP-7 (mRNA): FIG. 12; for expression of MMP-10 (mRNA): FIG. 13; for expression of MMP-11 (mRNA): FIG. 14; for expression of MMP-13 (mRNA): FIG. 15; for expression of MMP-15 (mRNA): FIG. 16; for expression of MMP-17 (mRNA): FIG. 17; for expression of MMP-27 (mRNA): FIG. 18
Description: as §5, §6, §7, §8, §3, §9

Compound | metalloproteolytic activity in presence of stimulus [1] | metalloproteolytic activity in presence of stimulus [2] | expression of the other metalloproteinases 1, 8, 9, 14, 16, 18, 24 and 26 [3] | expression of MMP-2 (mRNA) [3] | expression of MMP-3 (mRNA) [3] | expression of MMP-7 (mRNA) [3] | expression of MMP-10 (mRNA) [3] | expression of MMP-11 (mRNA) [3] | expression of MMP-13 (mRNA) [3] | expression of MMP-15 (mRNA) [3] | expression of MMP-17 (mRNA) [3] | expression of MMP-27 (mRNA) [3] | expression of the other metalloproteinases 1, 8, 9, 14, 16, 18, 24 and 26 [4] | expression of MMP-2 (mRNA) [4] | expression of MMP-3 (mRNA) [4] | expression of MMP-7 (mRNA) [4] | expression of MMP-10 (mRNA) [4] | expression of MMP-11 (mRNA) [4] | expression of MMP-13 (mRNA) [4] | expression of MMP-15 (mRNA) [4] | other results
GROα: growth-regulated oncogene a | did not induce any change | did not induce any change | – | – | – | – | – | – | – | – | – | – | – | – | – | – | – | – | – | – | –
VEGF | did not induce any change | did not induce any change | – | – | – | – | – | – | – | – | – | – | – | – | – | – | – | – | – | – | –
CC1=C(/C=C/C(C)=C/C=C/C(C)=C\C(=O)O)C(C)(C)CCC1 [13-cis-retinoic acid] | – | – | – | – | – | – | – | – | – | – | – | – | – | – | – | – | – | – | – | – | basal metalloproteolytic activity in presence of inhibitor ([1]; normal cholangiocytes, 13-cis-retinoic acid 10 μM/ml or Marimastat 200 μM/ml, p<0.01, FIG. 21): inhibited; basal metalloproteolytic activity in presence of inhibitor ([2]; polycystic cholangiocytes, 13-cis-retinoic acid 10 μM/ml or Marimastat 200 μM/ml, p<0.01, FIG. 21): inhibited
IL-8: cytokine interleukin 8, present in the cystic fluid | increase | increase | did not show changes | none of these modules induced changes | unchanged | None of the 3 molecules caused changes | increased | increased | increased | did not change | did not change | did not change | did not show changes | not changed | unchanged | unchanged | none of the 3 molecules caused changes | increased | did not change | not altered | expression of MMP-17 (mRNA) [4]: increased; expression of MMP-27 (mRNA) [4]: unchanged
IL-6: cytokine interleukin 6, present in the cystic fluid | increase | increase | did not show changes | none of these modules induced changes | unchanged | None of the 3 molecules caused changes | unchanged | did not change | did not cause changes | did not change | did not change | did not change | did not show changes | increased | increased | increased | none of the 3 molecules caused changes | increased | did not cause changes | increased | expression of MMP-17 (mRNA) [4]: increased; expression of MMP-27 (mRNA) [4]: increased
C[C@]12CC[C@@H]3c4ccc(O)cc4CC[C@H]3[C@@H]1CC[C@@H]2O [17β-estradiol] | increase | increase | did not show changes | none of these modules induced changes | increased | None of the 3 molecules caused changes | increased | increased | increased | did not change | did not change | did not change | did not show changes | increased | unchanged | unchanged | none of the 3 molecules caused changes | increased | increased | not altered | expression of MMP-17 (mRNA) [4]: increased; expression of MMP-27 (mRNA) [4]: unchanged
